Experimental findings from patent publication US20200181284A1, “EPIGENETIC INHIBITORS FOR SENSITIZING HEMATOLOGIC OR OTHER MALIGNANCIES TO GLUCOCORTICOID THERAPY” (UNIVERSITY OF SOUTHERN CALIFORNIA, priority 2017, published 2020) are described below.

The test system of assay [1] is NALM6 cells. Kind of assay: Cell death assay (Presto Blue, 72 h) with dex plus inhibitor. Type of assay: cell-based, human. The method, then:
Cells were plated in CellStar low evaporation lid 96-well round-bottom plate at a density of 100,000 cells/ml. Directly after plating, cells were treated in triplicate with serial dilutions of dexamethasone or vehicle control (0.1% ethanol). After 72 h, cell viability of each well was analyzed in duplicate using the Presto Blue Assay Reagent (Life Technologies). Fluorescence was measured and data were analyzed with Prism6 software.
(§1) FIGS. 40A, 40B, 40C, 40D-1, 40D-2, 40D-3, and 40D-4 show Aurora kinase B inhibitors sensitizing NALM6 cells to GC-induced cell death. As shown in FIGS. 40A and 40B, NALM6 cells were treated with the indicated dex concentration in addition to 0.75 μM ZM447439 (FIG. 40A), 16 nM AZD2811 (FIG. 40B), or equivalent volume of vehicle DMSO for 72 h, and cell survival was measured by a fluorescence metabolic assay. In each condition, the value measured with dex was normalized to the fluorescence value measured with ethanol. Percentage of survival is shown as the mean±SEM of 4 independent experiments and p-values for individual dex concentrations were calculated using a paired t-test. *p≤0.05, **p≤0.01, * * *p≤0.001. F-test comparing the two curves: p≤0.001. Insets show the EC50s that were calculated as the concentration at which half the cells remained alive, compare to vehicle controls. Error bars depict the SEM of 4 independent experiments and p-values were calculated to compare AURKB inhibitor treatment to DMSO using a paired t-test ** p≤0.01, * * *p≤0.001. […] The indicated proteins were then examined by immunoblot. As shown in FIGS. 40D-1, 40D-2, 40D-3, and 40D-4, NALM6 cells pre-treated with AZD2811 (16 nM) or DMSO for 24 h, were then treated for 8 h with 100 nM dex or ethanol. mRNA levels for the indicated GR target genes were measured by RT-qPCR and normalized to β-actin mRNA levels.
FIGS. 48A, 48B, 48C, 48D, 48E, and 48F show the effect of AURKB inhibitors on EHMT2 phosphorylation and dex-induced cell death. […] In each condition, the value measured with dex was normalized to the fluorescence value measured with ethanol. Percentage of survival is shown as the mean±SEM of 4 independent experiments and p-values for individual dex concentrations were calculated using a paired t-test. *p≤0.05, **p≤0.01, * * *p≤0.001. F-test comparing the two curves: p≤0.001. EC50s were calculated as the concentration at which half the cells remained alive, compare to vehicle controls. Error bars depict the SEM of 4 independent experiments and p-value was calculated to compare ZM treatment to DMSO using a paired t-test **p≤0.01, * * *p≤0.001. […] EC50s were calculated as the concentration at which half the cells remained alive, compare to vehicle controls. Error bars depict the SEM of 4 independent experiments and p-value was calculated to compare alisertib treatment to DMSO using a paired t-test. […] (E-F) RCH-ACV cells were treated with the indicated dex concentration in addition to 0.75 μM ZM447439 (FIG. 48E), 16 nM AZD2811 (FIG. 48F), or DMSO for 72 h, and cell survival was measured by a fluorescence metabolic assay. In each condition, the value measured with dex was normalized to the fluorescence value measured with ethanol. Percentage of survival is shown as the mean±SEM of 5 individual experiments and the p-value for each dex concentration was calculated using a paired t-test. *p≤0.05, **p≤0.01, * * *p≤0.001. F-test comparing the two curves: p≤0.001.
FIGS. 55A, 55B, and 55C show JIB-04 enhances GC-induced death of B-ALL cell line NALM6.

Another assay deals with EHMT2 phosphorylation. The assay is described as follows: Phosphorylation of EHMT2 in NALM-6 cells (pan ph-T immunoprecipitation, EHMT2 immunoblot). It is filed as cell-based, human. The conditions noted are these: NALM-6, 16 nM AZD2811, 24 h. On the procedure: (§2) Cells were treated as indicated, and cell extracts were prepared in RIPA buffer ([…] Tris-HCl, pH 8, 150 mM NaCL, 1 mM EDTA, 1% NP-40, and 0.25% deoxycholate) supplemented with protease inhibitor tablets (Roche Molecular Biochemicals) and phosphatase inhibitors (1 mM NaF, 1 mM Na3VO4, and 1 mM β-glycerophosphate). Protein extracts were incubated overnight at 4° C. with shaking with 1 μg of antibodies against EHMT2 (Sigma G6919), EHMT1 (Millipore 09-078), or pan phospho-threonine (Millipore AB1607). Protein A/G plus agarose beads (Santa Cruz sc-2003) were added, and the mixture was incubated 2 h at 4° C. The immunoprecipitates were separated on SDS-PAGE. […]
FIGS. 48A, 48B, 48C, 48D, 48E, and 48F show the effect of AURKB inhibitors on EHMT2 phosphorylation and dex-induced cell death. […] In each condition, the value measured with dex was normalized to the fluorescence value measured with ethanol. Percentage of survival is shown as the mean±SEM of 4 independent experiments and p-values for individual dex concentrations were calculated using a paired t-test. *p≤0.05, **p≤0.01, * * *p≤0.001. […] EC50s were calculated as the concentration at which half the cells remained alive, compare to vehicle controls. Error bars depict the SEM of 4 independent experiments and p-value was calculated to compare ZM treatment to DMSO using a paired t-test **p≤0.01, * * *p≤0.001. […]
In general terms: A western blot detects proteins with antibodies after separation by electrophoresis.

Assay [2] deals with NALM6 cells. The assay is described as follows: Immunoblot of apoptosis markers (cleaved caspase 3, caspase 7, PARP1) in NALM6 cells. It is filed as cell-based, human. The conditions noted are these: 16 nM AZD2811 pretreatment 24 h, then 100 nM dex 24 h. On the procedure: as §2
FIGS. 40A, 40B, 40C, 40D-1, 40D-2, 40D-3, and 40D-4 show Aurora kinase B inhibitors sensitizing NALM6 cells to GC-induced cell death. As shown in FIGS. 40A and 40B, NALM6 cells were treated with the indicated dex concentration in addition to 0.75 μM ZM447439 (FIG. 40A), 16 nM AZD2811 (FIG. 40B), or equivalent volume of vehicle DMSO for 72 h, and cell survival was measured by a fluorescence metabolic assay. In each condition, the value measured with dex was normalized to the fluorescence value measured with ethanol. Percentage of survival is shown as the mean±SEM of 4 independent experiments and p-values for individual dex concentrations were calculated using a paired t-test. *p≤0.05, **p≤0.01, * * *p≤0.001. […]

The subject of assay [3] is GR target genes in NALM6 cells. The assay is described as follows: RT-qPCR of GR target genes in NALM6 cells. Type of assay: cell-based, human. The conditions noted are these: NALM6, 16 nM AZD2811 24 h, then 100 nM dex 8 h. On the procedure:
RNA was isolated using TRIzol (Invitrogen) according to the manufacturer's instructions. Reverse transcription reaction was performed using Superscript III (ThermoFisher) according to specifications with 1 μg of total RNA as template. Quantitative PCR amplification of the resulting cDNA was performed on a Roche LightCycler 480 using SYBR green I master mix (Roche). mRNA levels were normalized to the level of b-actin mRNA.
as §1
FIGS. 54A, 54B, and 54C highlight the GR Target genes that require G9a and GLP as coactivators.
A general note: In qPCR the cycle at which signal appears reflects the starting amount.

In assay [4] the test system is LAX7R and LAX56 primary human B-ALL cells. The assay is described as follows: Survival of primary B-ALL cells co-cultured with OP-9 feeder cells (Annexin V/7AAD). Type of assay: cell-based. The method, then: Primary ALL cells (LAX7R and LAX56) were established from mouse xenografts derived from patient samples (Adam et al., 2017; Hsieh et al., 2013). They were cultured in 24 well tissue-culture plates on irradiated OP-9 cells with growth medium containing MEM-α with 20% heat-inactivated fetal bovine serum, and 100 IU/ml penicillin and 100 μg/ml streptomycin. On day 3 and day 5 after the addition of drugs, ALL cells were collected, and apoptosis was assessed using PE Annexin V Apoptosis Detection Kit with 7-AAD.
As shown FIGS. 41A-1, 41A-2, 41B-1, and 41B-2, LAX7R (FIGS. 41A-1 and 41A-2) or LAX56 (FIGS. 41B-1 and 41B-2) primary human B-ALL cells were co-cultured with OP-9 feeder cells for 3 days (left) or 5 days (right) in the presence of the indicated drugs, and cell survival was determined by staining with Annexin/7AAD. p-value was calculated using a paired t-test, and different symbols were used to indicate p-values between different groups.+indicates statistical significance (+p≤0.05, ++p≤0.01 and + + + p≤0.001) between Dexamethasone or AZD2811 treated group and DMSO control group; # indicates statistical significance (#p≤0.05, ##p≤0.01 and # # # p≤0.001) between AZD2811+Dexamethasone combination group and AZD2811 group; * indicates statistical difference (*p≤0.05, **p≤0.01, * * *p≤0.001) between combination group and respective Dexamethasone treated groups. Values shown are mean and SD for 3 biological replicates, which are representative of 3 independent experiments.

A further assay relates to G9a methylation. The assay is described as follows: G9a methylation level in NALM6 cells treated with KDM inhibitors. Type of assay: cell-based, human. An excerpt:
There are two distinct families of KDM with distinct catalytic mechanisms (FIG. 50B). We tested one inhibitor for each family: OG-L002 inhibits the two members of the LSD family of KDM, and JIB-04 inhibits several members of the large JmjC family of KDM, including members of the KDM2, KDM3, and KDM4 subfamilies. We propose that there is an equilibrium between the enzymes that methylate G9a and GLP (in this case they methylate themselves) and the KDM enzymes to maintain a moderate level of G9a/GLP methylation (FIGS. 50C-1, 50C-2), and that inhibition of the KDMs that normally demethylate G9a and GLP (currently unknown) will increase the level of G9a/GLP methylation and thereby enhance the coactivator activity of G9a/GLP, the GC activation of the cell death genes, and GC-induced cell death in B-ALL cells. Thus, as a first step to identify the G9a/GLP-specific demethylases, we treated NALM6 cells with the two inhibitors named above. OG-L002 had no effect on the level of G9a methylation, but JIB-04 increased the level of G9a methylation in NALM6 cells (FIG. 50D).

As to `CCN(CCO)CCCOc1ccc2c(Nc3cc(CC(=O)Nc4cccc(F)c4)[nH]n3)ncnc2c1` [AZD2811], the dex-induced cell death result in the assay with NALM6 cells [1] (NALM6, 16 nM AZD2811, 72 h) is reported as “enhanced”. Further, the “phosphorylation of EHMT2” value in the assay on EHMT2 phosphorylation is given as “decreased”. Also, the “cleavage of apoptotic markers in dex-treated NALM6” value with NALM6 cells [2] is listed as “increased”. Further, in assay [3], the “dex-induced expression of dex-effector genes that utilize EHMT2, EHMT1 and CBX3” value is “enhanced”. Besides, in assay [4] (16 nM AZD2811 alone, 3 or 5 days), the “cell survival compared with the vehicle-treated control” value is 70-80%. Also, in assay [4] (16 nM AZD2811 in combination with 0.1 nM dex, 3 or 5 days), the cell survival was 10-40%. Besides, the “dex sensitivity of the two dex-resistant primary B-ALL lines” value in assay [4] (16 nM AZD2811 with dex) is recorded as “dramatically enhanced”.
Regarding `N[C@H]1C[C@@H]1c1ccc(-c2cccc(O)c2)cc1` [OG-L002, 3-[4-[(1R,2S)-2-aminocyclopropyl]phenyl]phenol], the “GC-induced death of NALM6 cells” value in the assay with NALM6 cells [1] (72 hours with various dex concentrations plus KDM inhibitor) is on record as “no effect”. Also, the “level of G9a methylation” value in the assay on G9a methylation was “no effect”.
